Several values for one entry are separate records, joined by “and”; a condition that tells them apart may be missing. Identical values can stand only once.
Columns and labels:
[1] = target: human norepinephrine transporter (hNET) (Homo sapiens, UniProt P23975); test: cell-based
Experimental: (§1) MDCK-Net6 cells, stably transfected with human hNET [15] were cultured in growth medium containing high glucose DMEM (Gibco, Cat. No. 11995), 10% FBS (dialyzed, heat-inactivated, US Bio-Technologies, Lot FBD1129HI) and 500 μg/ml G418 (Gibco, Cat. No. 10131). Cells were plated at 300,000/T75 flask and cells were split twice weekly. The JAR cell line (human placental choriocarcinoma) was purchased from ATCC (Cat. No. HTB-144). The cells were cultured in growth medium containing RPMI 1640 (Gibco, Cat. No. 72400), 10% FBS (Irvine, Cat. No. 3000), 1% sodium pyruvate (Gibco, Cat. No. 1136) and 0.25% glucose. Cells were plated at 250,000 cells/T75 flask and split twice weekly. For cell based assays, cells were plated in Wallac 96-well sterile plates (Perkin Elmer, Cat. No. 3983498). For the human dopamine transporter (hDAT) binding assay, membranes from cells expressing recombinant hDAT are purchased from Perkin Elmer (Cat. No. RBHDATM, Lot#2227) and maintained at −80° C. until assay day.
On day 1, cells were plated at 3,000 cells/well in growth medium and maintained in a cell incubator (37° C., 5% CO2). […] The plates were counted in a Wallac Microbeta counter (PerkinElmer) to collect the raw cpm data. […]

[2] = target: T1, human serotonin transporter (hSERT) (Homo sapiens, UniProt P31645); test: Serotonin (5-HT) uptake assay in JAR cells; format: cell-based; settings: [3H]5-HT uptake, read-out: hSERT function uptake (EC50 in nm)
T1 construct: The methods for 5-HT functional reuptake using the JAR cell line; host or cells: JAR (human placental choriocarcinoma), staurosporine-stimulated
T1 sequence (P31645 whole entry): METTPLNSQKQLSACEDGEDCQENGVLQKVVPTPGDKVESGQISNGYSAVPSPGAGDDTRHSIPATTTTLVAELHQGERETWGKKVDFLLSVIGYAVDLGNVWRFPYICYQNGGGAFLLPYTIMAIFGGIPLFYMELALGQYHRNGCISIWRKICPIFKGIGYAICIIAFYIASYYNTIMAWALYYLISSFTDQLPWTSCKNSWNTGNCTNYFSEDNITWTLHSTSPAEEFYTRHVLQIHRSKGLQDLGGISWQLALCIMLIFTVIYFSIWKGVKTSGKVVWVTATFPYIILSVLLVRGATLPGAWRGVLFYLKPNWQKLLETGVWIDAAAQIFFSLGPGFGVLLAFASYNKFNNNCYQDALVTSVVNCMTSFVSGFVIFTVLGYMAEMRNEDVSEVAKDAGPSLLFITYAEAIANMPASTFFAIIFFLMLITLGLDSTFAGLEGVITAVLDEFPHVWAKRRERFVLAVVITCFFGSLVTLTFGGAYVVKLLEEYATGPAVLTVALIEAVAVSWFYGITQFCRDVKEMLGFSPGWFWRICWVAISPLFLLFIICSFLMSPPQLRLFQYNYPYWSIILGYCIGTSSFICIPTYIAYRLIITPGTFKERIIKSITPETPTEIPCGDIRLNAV
Experimental: as §1
The methods for 5-HT functional reuptake using the JAR cell line were modified using a previous literature report. On day 1, cells were plated at 15,000 cells/well in 96-well plates containing growth medium (RPMI 1640 with 10% FBS) and maintained in a cell incubator (37° C., 5% CO2). […] The plates were counted in a Wallac Microbeta counter (PerkinElmer) to collect the raw cpm data. […]

[3] = target: T2, human dopamine transporter (hDAT) (Homo sapiens, UniProt Q01959); test: Dopamine transporter (hDAT) membrane binding assay
T2 construct: purchased Perkin Elmer RBHDATM
T2 sequence (Q01959 whole entry): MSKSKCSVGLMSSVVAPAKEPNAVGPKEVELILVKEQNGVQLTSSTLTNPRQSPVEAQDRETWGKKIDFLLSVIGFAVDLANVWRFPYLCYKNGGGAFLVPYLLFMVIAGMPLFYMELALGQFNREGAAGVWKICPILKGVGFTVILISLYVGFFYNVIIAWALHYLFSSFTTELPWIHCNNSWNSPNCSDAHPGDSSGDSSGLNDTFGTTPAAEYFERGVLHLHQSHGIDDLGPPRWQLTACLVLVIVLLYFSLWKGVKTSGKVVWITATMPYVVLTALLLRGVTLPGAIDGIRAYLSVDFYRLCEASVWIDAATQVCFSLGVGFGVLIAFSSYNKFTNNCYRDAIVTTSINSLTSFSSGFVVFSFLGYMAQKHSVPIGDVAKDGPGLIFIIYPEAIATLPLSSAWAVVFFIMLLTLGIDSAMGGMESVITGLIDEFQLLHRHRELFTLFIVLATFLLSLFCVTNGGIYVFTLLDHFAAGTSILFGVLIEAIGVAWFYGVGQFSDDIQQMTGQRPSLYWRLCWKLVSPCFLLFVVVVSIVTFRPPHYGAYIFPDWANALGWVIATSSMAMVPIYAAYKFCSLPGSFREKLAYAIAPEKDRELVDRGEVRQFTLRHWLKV
Experimental: as §1
For each experiment, a data stream of cpm values collected from the Wallac Microbeta counter was downloaded to a Microsoft Excel statistical application program. Calculations of IC50/EC50 values were made using the transformed-both-sides logistic dose response program written by Wyeth Biometrics Department.

[4] = system: ovariectomized (OVX) rats; test: Telemetry rat model of ovariectomy-induced thermoregulatory dysfunction (tail skin temperature); format: in vivo; settings: 30 mg/kg, sc
Source text: This model has been modified from a previously reported protocol describing estrogen regulation of diurnal tail skin temperature (TST) patterns (Berendsen, et al., European Journal of Pharmacology, 2001, 419(1): 47-54). […] A temperature and physical activity transmitter (PhysioTel TA10TA-F40, Data Sciences International) was implanted subcutaneously in the dorsal scapular region and the tip of the temperature probe was tunneled subcutaneously 2.5 cm beyond the base of the tail. After a 7-day recovery period, TST readings were continuously recorded for the remainder of the study. Tail skin temperature readings were collected from each animal every 5 minutes with values obtained over a 10 second sampling period. The day before test day, an average baseline TST value was calculated for each animal by averaging temperature readings recorded during the 12 hour active (dark) phase. […]
Statistical analysis: Evaluation of a compound's ability to restore normal lowering of TST in the telemetry model was analyzed using hourly TST values calculated for each animal by averaging the 12 temperature readings obtained every 5 minutes over that recording time. […]
The effect of test compound is measured by evaluating the following parameters in this model: onset of action, duration of effect on TST, maximal change in TST and mean change in TST over the duration of the compound effect.

[5] = system: Spinal Nerve Ligation (SNL) Model of Neuropathic Pain; test: Spinal Nerve Ligation (SNL) model of neuropathic pain, tactile hypersensitivity; format: in vivo, rat; settings: 30 mg/kg IP, 30-300 minutes after administration, FIG. 7
Source text: Subjects. Male Sprague-Dawley rats (Indianapolis, Ind.) weighing 150 to 200 g at time of arrival, were individually housed in wire cages in a climate-controlled room. A 12-hour light/dark cycle (lights on at 0630) was in effect, and food and water were available ad libitum.
Surgery—Spinal Nerve Ligation. Rats were anesthetized with 3.5% halothane in O2 at 1 L/min and maintained with 1.5% halothane in O2 during surgery. Ligation of the L5 and L6 nerves was produced by an incision through the left paraspinal muscles. The left L5 and L6 spinal nerves were isolated adjacent to the vertebral column and ligated tightly with 6-0 silk suture just distal to the dorsal root ganglion. The wound was closed in layers using 4-0 silk suture and wound clips. Testing began 7 days after surgery.
Assessment of tactile hypersensitivity. […] Baseline tactile sensitivity was assessed using a series of calibrated von Frey monofilaments (Stoelting; Wood Dale, Ill.) 0 to 3 days before surgery. […] The ability of a single dose of test compound to reverse established hypersensitivity was assessed using a time course procedure. […]
Results are presented as the 50% threshold values (50% threshold in g force) estimated by the Dixon non-parametric test. […] Significant main effects were analyzed further by subsequent least significant difference analysis. […]

human norepinephrine transporter (hNET), sequence (P23975 whole entry): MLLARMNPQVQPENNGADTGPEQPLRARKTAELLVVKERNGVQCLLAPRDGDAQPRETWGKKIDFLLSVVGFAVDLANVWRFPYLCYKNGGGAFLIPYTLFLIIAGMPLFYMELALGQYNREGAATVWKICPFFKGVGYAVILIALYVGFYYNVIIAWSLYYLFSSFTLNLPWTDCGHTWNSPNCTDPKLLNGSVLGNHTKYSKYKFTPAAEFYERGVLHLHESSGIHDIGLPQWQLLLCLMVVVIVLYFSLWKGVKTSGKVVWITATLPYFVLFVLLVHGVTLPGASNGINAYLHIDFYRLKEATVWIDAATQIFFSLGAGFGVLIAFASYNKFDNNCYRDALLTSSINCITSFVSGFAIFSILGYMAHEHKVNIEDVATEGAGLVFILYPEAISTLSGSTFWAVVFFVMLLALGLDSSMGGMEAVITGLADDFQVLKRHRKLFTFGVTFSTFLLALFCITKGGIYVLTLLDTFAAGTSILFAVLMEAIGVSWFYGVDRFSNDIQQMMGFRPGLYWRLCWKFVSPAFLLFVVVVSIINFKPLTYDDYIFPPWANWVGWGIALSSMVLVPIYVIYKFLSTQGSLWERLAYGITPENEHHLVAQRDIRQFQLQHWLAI

| EC50 [1] | EC50 [2] | hDAT binding (% I at 10 μM) [3] | hDAT binding (% I at 1 μM) ([3]; 1 μM) | SMILES | Restoration of normal TST in OVX-induced thermoregulatory dysfunction telemetry model [4] | Reversal of tactile allodynia in the SNL neuropathic pain model [5] |
| --- | --- | --- | --- | --- | --- | --- |
| 148 nM | 7.35 µM | 51 % I |  | Cc1ccc([C@@]23CNC[C@@H]2C3)cc1 (single isomer, unassigned) [(+)-1-(4-methylphenyl)-3-azabicyclo[3.1.0]hexane] | restores normal TST |  |
|  |  | 45 % I and 52.1 % I | 26.5 % I | Cc1ccc(C23CNCC2C3)cc1 (racemic) [Racemic 1-(4-methylphenyl)-3-azabicyclo[3.1.0]hexane, 1-(4-methylphenyl)-3-azabicyclo[3.1.0]hexane] | restores normal TST |  |
|  |  |  |  | Clc1ccc(C23CNCC2C3)cc1Cl (racemic) [Racemic 1-(3,4-dichlorophenyl)-3-azabicyclo[3.1.0]hexane, 1-(3,4-dichlorophenyl)-3-azabicyclo[3.1.0]hexane] |  | significantly reverses tactile allodynia |

— patent publication US20070021488A1, “Method for treating nervous system disorders and conditions” (Wyeth, priority 2005, published 2007)
